Laboratory results published in patent US7087790B2, “Benzotropolone derivatives and modulation of inflammatory response” (Rutgers, The State University of New Jersey, priority 2003, dated 2006).
Several values for one entry are separate records, joined by “and”; a condition that tells them apart may be missing. Equal entries are not always repeated.

What was measured:
[1] = system: TPA-induced Edema of Mouse Ear; experiment: TPA-induced ear edema assay (skin inflammation model); assay type: in vivo, female CD-I mice; conditions: 0.5 μmol topical in acetone 20 min before TPA (1 nmol); for Average weight of ear punches (mg) (Mean ± SE): 6 mm punches 5 h later; for Percent inhibition %: ear punch weight 5 h later
Source text: In yet another aspect of the invention, the present invention is directed to a method of preventing and/or treating inflammation in an animal using compositions having benzotropolone containing compounds disclosed herein. […] The anti-inflammatory activity (or anti-edema) of benzotropolone containing compounds of the present invention can be tested using 12–0-tetradecanoylphorbol- 13-acetate (TPA) TPA-induced inflammatory skin edema assay. Application of TPA on skin results in induction of omithine decarboxylase activity that increases the polyamine level and epidermal hyperplasia, and inflammation, and pro-inflammatory cytokine (e.g., IL-1β) and prostaglandins (prostaglandin E2) production at the site. The benzotropolone containing compounds can be applied either prior to or subsequent to or simultaneously with the topical application of TPA to skin tissue (e.g. mice ear).
The TPA (12-O-tetradecanoylphorbol-13-acetate)-induced ear edema assay was carried out to examine anti-inflammatory activity of benzotropolone-containing compounds in skin inflammation model. The female CD-I mice (24-25 days old) were topically treated with 20 μl of acetone and benzotropolone-containing compounds in 20 μl of acetone at 20 minutes before topical application of 20 μl of acetone or TPA (1 nmol) in 20 μl of acetone. Then, five hours later, all mice were sacrificed by cervical dislocation. The ear punches (6 mm in diameter) were taken and weighed.

[2] = Oxygen radical absorbance capacity (ORAC) assay with fluorescein probe and AAPH; conditions: Trolox equivalents; 0.5 μM; 75 mM phosphate buffer pH 5.5; mean ± SD, n = 4 (a: n = 3)
Source text: In another aspect, the present invention also discloses antioxidant activities of the compositions having benzotropolone containing compounds disclosed herein. Oxygen radical absorbence capacity (ORAC) assay, which is a measure of free radical scavenging ability, is simple and sensitive method to measure the oxygen-radical absorbing capacity. It has been widely used for measuring the antioxidant activity of food and nutraceutical components. ORAC assay was developed by Cao et al., 1993, Free Radical Biol. Med. 14:303–311. In the assay, β-phycoerythrin (β-PE) was used as fluorescent indicator protein and 2,2′-Azobis(2-amidinopropane) dihydrochloride (AAPH) used as a peroxy radical generator. β-PE is a photosynthetic protein found in red algae. β-PE has been used as fluorescent probe because of its distinct excitation and emission wavelength (Ex. 540 nm, Em. 565 nm). The use of β-PE as a fluorescent probe, however, has certain defects. When reactive oxygen species attack the β-PE, it can easily lose the fluorescence. Furthermore, the ORAC value can be affected by possible interaction between polyphenols and proteins. Recently, Ou et al., 2001, J. Agric. Food Chem. 49:4619–4626 reported an improved ORAC method using fluorescein, instead of β-PE, as a fluorescent probe. Accordingly, fluorescein is used as a fluorescent probe in ORAC assays for testing the antioxidant activities of the compounds of the present invention.
Oxygen radical absorbance capacity (ORAC) assay was performed to examine antioxidant activity of individual theaflavins and epitheaflavic acids. All reagents were prepared in 75 mM phosphate buffer (pH 5.5). Reaction mixture consists of 3 mL of Fluorescein solution (8.16×10^−5 mM), 500 μL AAPH (153 mM), and 500 μL of sample solution or blank. Once AAPH was added, fluorescence was measured every 1 min using Hitachi Model F-3010 fluorescence spectrophotometer with emission and excitation wavelength of 515 and 493 nm, respectively. The ORAC value was calculated based on the area under the fluorescence decay curve of fluorescein in the presence of the test compound comparing to the area generated by standard Trolox and blank. The net area under the curve and ORAC values were calculated by the formula presented by Cao et al (Cao et al. 1993).
The relative ORAC value (Trolox equivalents) was calculated with following equation.
The area under curve (AUC) was calculated according to following equation. AUC=1+f1/f0+f2/f0+f3/f0+f4/f0 . . . +f119/f0+f120/f0 f0 is the initial fluorescence reading at 0 min, fi is the fluorescence reading at time i.
Quenching curves representing the peroxyl radical absorbing activity of Trolox in various concentration (0˜4 μM) was used as a standard (data not shown). The net area of quenching curve increased proportionally to an increment of the Trolox concentration. Quenching curves of theaflavins and EGCG were examined (data not shown). […] Quenching curves of epitheaflavic acids and EGCG were also examined. (data not shown).

[3] = system: TPA-induced ear edema; conditions: topical; cited from earlier work

Row | Compound | Average weight of ear punches (mg) (Mean ± SE) [1] | Percent inhibition % [1] | Relative ORAC value [2] | anti-inflammatory activity (rank order, Liang et al.) [3]
1 | Theaflavin 3′-gallate | 7.44 ± 0.18 mg | 100.0% | 12.40 ± 0.58 | –
2 | Theaflavin 3,3′-digallate [Theaflavin 3,3′-gallate] | 7.03 ± 0.18 mg | 100.0% | 13.54 ± 0.69 | stronger than TF-2
3 | O=C(O)c1cc(O)c(=O)c2c(O)c(O)cc([C@H]3Oc4cc(O)cc(O)c4C[C@@H]3O)c2c1 [Theaflavic acid] | 9.28 ± 0.37 mg and 8.95 ± 0.43 mg | 78.3% and 79.5% | – | –
4 | Theaflavate B | 8.35 ± 0.32 mg | 89.2% | – | –
5 | O=c1c(O)cc([C@H]2Oc3cc(O)cc(O)c3C[C@H]2O)cc2c([C@H]3Oc4cc(O)cc(O)c4C[C@H]3O)cc(O)c(O)c12 [Theaflavin] | 7.90 ± 0.42 mg and 8.23 ± 0.40 mg | 89.2% and 87.8% | 11.60 ± 0.30 | –
6 | O=c1c(O)cccc2cc(O)c(O)c(O)c12 [Purprogallin, Purpurogallin] | – | – | 6.01 ± 0.42 | –
7 | Theaflavate A | 8.52 ± 0.26 mg | 87.2% | – | –
8 | O=c1c(O)cc([C@H]2Oc3cc(O)cc(O)c3C[C@H]2O)cc2c([C@H]3Oc4cc(O)cc(O)c4C[C@@H]3O)cc(O)c(O)c12 [Neotheaflavin] | 10.58 ± 0.73 mg | 62.9% | – | –
9 | O=C(O[C@@H]1Cc2c(O)cc(O)cc2O[C@@H]1c1cc(O)c(O)c(O)c1)c1cc(O)c(O)c(O)c1 [EGCG, (−)-epigallocatechin-3-gallate, reference compound] | 8.79 ± 0.54 mg | 68.3% | 7.69 ± 0.35 | –
10 | Epigallocatechinocatechol gallate [EGCGCa] | 7.49 ± 0.12 mg | 96.3% | – | –
11 | O=C(O)c1cc(O)c(=O)c2c(O)c(O)ccc2c1 [GACa] | 8.61 ± 0.54 mg | 83.3% | – | –
12 | O=C(O[C@@H]1Cc2c(O)cc(O)cc2O[C@@H]1c1cc(=O)c(O)c2c(O)c(O)cc([C@H]3Oc4cc(O)cc(O)c4C[C@H]3O)c2c1)c1cc(O)c(O)c(O)c1 [Theaflavin 3-gallate] | 7.86 ± 0.24 mg | 91.5% | 13.17 ± 0.18 | –
13 | Neotheaflavate A | 8.65 ± 0.64 mg | 85.7% | – | –
14 | O=C(OC1Cc2c(O)cc(O)cc2OC1c1cc(O)c(=O)c2c(O)c(O)cc(C3Oc4cc(O)cc(O)c4CC3O)c2c1)c1cc(O)c(O)c(O)c1 (stereo not drawn) [Neotheaflavin 3-gallate] | 8.42 ± 0.42 mg | 88.4% | – | –
15 | Epitheaflavic acid | 9.39 ± 0.43 mg | 74.4% | 9.74 ± 0.38 | –
